From patent publication US6541483B2, “Acridone-derived compounds useful as antineoplastic and antiretroviral agents” (The United States of America as represented by the …, priority 1996, dated 2003) come the findings set out here.

Usually EC50 stands for the concentration giving half of the maximal effect.

The test system of assay [1] is HIV-1RF. Put plainly: nude mouse hollow fiber model of HIV-1 replication. In kind it is in vivo, nude mice. The source says:
The novel mechanism of action of temacrazine and its broad range of activity against HIV-1 and its high therapeutic indexes led us to assess its in vivo and anti-viral properties in a nude mouse hollow fiber model of HIV-1 replication. Briefly, CEM-SS cells are infected with HIV-1RF and placed into hollow fibers and implanted intraperitoneal or subcutaneously into nude mice. […] Similarly, mice are being treated by oral and intravenous administration of temacrazine. Peritoneal washes and serum samples were collected and p24 expression determined by antigen capture. Intraperitoneal administration of temacrazine reduced the amount of detectable p24 in peritoneal washes by 5 to 10 fold independently of the dosage schedule. […] Thus, temacrazine reduces HIV-1 replication in vivo.

The subject of assay [2] is HIV-1 in U1 cells. Put plainly: TNF-α stimulated latently infected U1 cells, virus production. It counts as cell-based. As to the method:
As a model of the late phase events during the HIV-1 replication cycle, U1 cells were used that are latently infected with two copies of HIV-1 proviral DNA. The high level expression of virus production in these U1 cells can be stimulated by certain factors, such as TNF-α. U1 cells were stimulated with TNF-α for 24 hours, after which were added various concentrations of temacrazine, and the cultures were allowed to incubate for 48 additional hours. At that time, the cells were evaluated for viability and for their content of viral protein synthesis and processing, while the cell-free supernatant was evaluated for viral p24 content and for the infectious titer of released virions.
After TNFα induction and temacrazine treatment, cultures were continued for 72 h after which virion-associated p24 and cell viability (XTT dye reduction) were measured.

For assay [3], the target named is HIV-1 reverse transcriptase (Human immunodeficiency virus type 1 group M subtype B, UniProt P04585). Put plainly: reverse transcriptase enzyme activity. It counts as biochemical. The source says: (§1) Based on the findings thus far our efforts have focused on biological assays of the temacrazine congener.
Assay [4] has as its system HIV-1 in ACH-2 cells. Put plainly: TNFα stimulated latently infected ACH-2 cells, virus production. It counts as cell-based. The settings on record: Human immunodeficiency virus 1, 72 h, read-out: EC50, inhibition of HIV-1 virus replication (virion-associated p24). The procedure:
In a similar study, cells were either treated for 24h with TNFα followed by the addition of temacrazine, or temacrazine and TNFα were added simultaneously, or temacrazine was added 24 h […] TNFα addition. After TNFα induction and temacrazine treatment, cultures were continued for 72 h after which virion-associated p24 and cell viability (XTT dye reduction) were measured.

Assay [5] has as its system HIV-1 proviral DNA formation (LTR/gag). Put plainly: time course assay of proviral DNA formation. It counts as cell-based. The settings on record: amplified LTR/gag region.
Assay [6] addresses HIV-1 integrase (Human immunodeficiency virus type 1 group M subtype B, UniProt P04585). Put plainly: 3'-processing and strand transfer with recombinant integrase. Also noted: in vitro assay using purified oligomers and recombinant HIV-1 integrase. It counts as biochemical.
Description: as §1

For assay [7], the system named is HIV-1 mRNA. Put plainly: RT-PCR of HIV-1 mRNA expression and splicing after TNFα induction. In kind it is cell-based. As to the method:
Similar results were seen when temacrazine and TNFα were added simultaneously.
As a control the house keeping gene porphobilinogen deaminase (Hydroxymethylbilane synthase, “PBGD”) was amplified to determine uniformity of loading.

The mark [8] stands for this setting: 8.5 mg/kg q8h intraperitoneally.
The mark [9] stands for this setting: 12.5 mg/kg q12h intraperitoneally.
[10] abbreviates: 25 mg/kg q24h intraperitoneally.

SMILES strings stand for the structures. Read-outs that look alike come from different tables or passages of the source.

`O=c1c2ccccc2n2nnc3ccc(NCCCN4CCN(CCCNc5ccc6nnn7c8ccccc8c(=O)c5c67)CC4)c1c32` [temacrazine]: the “Peritoneal Wash p24, mean” value in assay [1] (setting [8]) came to 460 pg p24; in assay [1] (setting [9]), 190 pg p24; in assay [1] (setting [10]), 593 pg p24. The “Serum p24, mean” value in assay [1] (setting [8]) is given as 1790 pg p24; in assay [1] (setting [9]), 1863 pg p24; in assay [1] (setting [10]) it was 2030 pg p24. Also, the “p24 in the serum” value in assay [1] (intraperitoneal, total 25 mg/kg per day for 6 days) is reported as “reduced the amount of p24 in the serum”. Also, in assay [1] (intraperitoneal, total 25 mg/kg per day for 6 days, any schedule), the “reduction of detectable p24 in peritoneal washes” value was in the range of 5 to 10 fold. The “production of infectious virus following stimulation with TNFα” value in assay [2] (30 min. pulse of cultures) was “presented subsequent production of infectious virus”. Besides, the EC50 was 10 to 100 nM in assay [2] (Human immunodeficiency virus 1, U1 cells, 72 h, read-out: EC50, inhibition of HIV-1 virus replication (virion-associated p24)); 10 to 100 nM in assay [4]; 10 to 100 nM in assay [6] (read-out: EC50, 3'-processing and strand transfer activity, purified oligomers, recombinant HIV-1 integrase). For the same compound, in assay [2] (TNF-α 24 h, then drug 48 h), the “infectivity of released viral particles (IU/ml)” value is “non-infectious”. Moreover, in assay [2] (TNF-α 24 h, then drug 48 h, cell-free supernatant), the “concentration at which virus production (p24) was inhibited” value is on record as “below 4 nM”. The “processing of Gag precursor polyprotein (Pr55gag) to p24 and p7NC” value in assay [2] (cells with integrated virus (U1), Western blotting, listed as WMC-70) is given as “no p24 can be detected”. For the same compound, the IC50 in assay [3] is above 100000 nM; in assay [3] (read-out: I50 RT Enzyme Activity, rAdT Template/primer), above 100000 nM; in assay [3] (read-out: I50 RT Enzyme Activity, rCdG Template/primer), above 100000 nM; in assay [6], 10 to 100 nM. The “inhibition of reverse transcriptase” value in assay [3] was “did not inhibit”. For the same compound, the “formation of proviral DNA during reverse transcription” value in assay [5] is given as “did not prevent the formation of proviral DNA”. For the same compound, the “PBGD (house keeping gene) expression” value in assay [7] is listed as “did not decrease”. For the same compound, the “expression of unspliced or singly spliced mRNA” value in assay [7] (500 and 50 nM, prior to or 24 h after TNFα induction) is “completely inhibited”. Besides, the “expression of HIV-1 multispliced transcripts” value in assay [7] (RT-PCR, rev independent mRNAs) is on record as “did not alter”.
